{
  "source": "patent US11717635B2",
  "about": "“Argon combined with thrombectomy in the event of ischaemic stroke” (L'Air Liquide, Société Anonyme pour l'Etude et …, priority 2019, dated 2023)",
  "test_system": "transient focal cerebral ischaemia (occlusion of the middle cerebral artery)",
  "assay": "Transient focal cerebral ischaemia (microcoil occlusion of the right MCA, 90 min, then reperfusion mimicking mechanical thrombectomy) with MRI and behavioural follow-up",
  "format": "in vivo, rhesus macaques",
  "experimental": "The primates used in the study are rhesus macaques, in which it has been possible to obtain a stable and reproducible model of reversible ischaemia mimicking an ischaemic stroke and its reperfusion by mechanical thrombectomy, as explained below. After approval of the project by the ethics committee for animal experimentation, 6 rhesus macaques were randomized in 2 groups of 3 animals per group, namely: • a group treated with argon or “argon group” inhaling, for 90 min in total, a binary gas mixture formed of 60% argon and 40% oxygen (vol. %), the inhalation of the gas beginning 30 min after the start of the ischaemia and extending during and after the thrombectomy procedure (with or without thrombolysis); • a “control group” inhaling a gas mixture formed of 60% nitrogen and 40% oxygen (vol. %). These groups are subjected to a model of transient focal cerebral ischaemia without craniectomy consisting of an occlusion under anaesthesia of the middle cerebral artery (MCA) by deploying a rigid microspring, called a “microcoil”, until the arterial blood flow stops, in the M2 segment of the right MCA. After 90 min of ischaemia, which is the usual average time between the first signs of an ischaemic stroke and the cerebral reperfusion, the “microcoil” was removed and the revascularization confirmed by arteriography. This procedure mimics a blood clot and its removal by mechanical thrombectomy. All the animals are monitored by high-resolution MRI (Prisma 3 Tesla, Siemens) several days before and directly after the ischaemia (3[…], TOF) in order to quantify the cerebral volume made ischaemic (i.e. restriction of the apparent diffusion coefficient) and the cerebral oedema ([…]). Moreover, the functional recovery was monitored in the acute phase in 1 control animal and over the long-term in two animals of the argon group, that is to say over the course of 3 months post-ischaemia. The evaluations were carried out in terms of the clinical and functional neurological recovery with behavioural tests evaluating their fine sensory-motor performances.",
  "data": [
    {"smiles": "[Ar]", "note": "[argon]", "values": [
      {"measurement": "lesion volume", "setting": "argon group (60% argon/40% oxygen, 90 min), control group about 5 ml", "value": "about 1 ml"},
      {"measurement": "performances in the behavioural tests (fine sensory-motor) post-ischaemia compared with baseline", "setting": "argon group animals monitored 3 months post-ischaemia", "value": "not significantly impaired"},
      {"measurement": "blood-brain barrier state on MRI images", "setting": "argon group, rupture observed in the control group", "value": "preserved"},
      {"measurement": "decrease in the volume of cerebral oedema compared to the control group", "setting": "inhaled 60% argon/40% oxygen for 90 min, begun 30 min after start of ischaemia, MRI T2-FLAIR, P<0.05 vs control", "value": 85, "unit": "% reduction"},
      {"measurement": "decrease in the cerebral volume infarcted compared to the control group", "setting": "inhaled 60% argon/40% oxygen for 90 min, begun 30 min after start of ischaemia, MRI, P<0.05 vs 60% nitrogen/40% oxygen control", "value": 83, "unit": "% reduction"},
      {"measurement": "clinical and functional neurological recovery", "setting": "two animals of the argon group monitored 3 months post-ischaemia, deficit = left leg paresis", "value": "rapid recovery with only a minor and transient neurological deficit"}
    ]}
  ]
}
